Experimental data reported in the NIST ThermoML archive (doi:10.1021/je050200w).

Legend:
[1] = 101 kPa, Liquid
[2] = xn = mol fraction of the nth substance listed; settings: 101 kPa, Liquid

CCCCCCCCCCO [decan-1-ol]
[1]
Settings | mass density [kg/m3] | viscosity [mPa·s]
283.15 K | 836.6 | 22.06
288.15 K | 833.3 | 17.99
293.15 K | 829.9 | 14.39
298.15 K | 826.5 | 11.74
303.15 K | 823 | 9.561
308.15 K | 819.6 | 8
313.15 K | 816.3 | 6.831

CCCCCCCCO [octan-1-ol]
[1]
Settings | mass density [kg/m3] | viscosity [mPa·s]
283.15 K | 832.1 | 13.49
288.15 K | 828.6 | 10.87
293.15 K | 825.2 | 8.944
298.15 K | 821.9 | 7.498
303.15 K | 818.4 | 6.273
308.15 K | 815 | 5.342
313.15 K | 811.4 | 4.54

CCCCCCCCCO [nonan-1-ol]
[1]
Settings | mass density [kg/m3] | viscosity [mPa·s]
283.15 K | 835 | 17.44
288.15 K | 831.5 | 14.27
293.15 K | 828.1 | 11.63
298.15 K | 824.7 | 9.519
303.15 K | 821.3 | 7.806
308.15 K | 817.8 | 6.604
313.15 K | 814.3 | 5.668

CCCCCCCCCCCO [1-undecanol] + CCCCCCCCCCO
[2]
Settings | mass density, 293.15 K [kg/m3] | mass density, 298.15 K [kg/m3] | mass density, 303.15 K [kg/m3] | mass density, 308.15 K [kg/m3] | mass density, 313.15 K [kg/m3] | viscosity, 293.15 K [mPa·s] | viscosity, 298.15 K [mPa·s] | viscosity, 303.15 K [mPa·s] | viscosity, 308.15 K [mPa·s] | viscosity, 313.15 K [mPa·s]
x2 = 0 | 832.2 | 828.8 | 825.4 | 821.7 | 818.6 | 17.28 | 13.72 | 11.52 | 9.35 | 7.841
x2 = 0.1007 | 832 | 828.7 | 825.2 | 821.6 | 818.2 | 16.88 | 13.52 | 11.27 | 9.368 | 7.805
x2 = 0.1997 | 831.5 | 828.1 | 824.8 | 821.4 | 818 | 16.68 | 13.31 | 11.08 | 9.233 | 7.778
x2 = 0.2999 | 831.4 | 828 | 824.6 | 821.2 | 817.8 | 16.14 | 13.23 | 10.89 | 9.057 | 7.655
x2 = 0.3998 | 831.2 | 827.8 | 824.4 | 821 | 817.5 | 16.08 | 12.88 | 10.7 | 8.909 | 7.579
x2 = 0.4997 | 831 | 827.6 | 824.2 | 820.8 | 817.3 | 15.59 | 12.79 | 10.51 | 8.76 | 7.452
x2 = 0.5978 | 830.8 | 827.4 | 824 | 820.6 | 817.1 | 15.59 | 12.58 | 10.34 | 8.652 | 7.323
x2 = 0.6999 | 830.5 | 827.1 | 823.7 | 820.3 | 816.9 | 15.28 | 12.35 | 10.14 | 8.504 | 7.249
x2 = 0.7989 | 830.4 | 827 | 823.5 | 820.2 | 816.7 | 14.5 | 12.12 | 9.958 | 8.357 | 7.068
x2 = 0.8995 | 830.1 | 826.8 | 823.3 | 819.9 | 816.5 | 14.76 | 11.98 | 9.777 | 8.185 | 6.94

CCCCCCCCCCO [decan-1-ol] + CCCCCCCCCO
[2], x2 = 0
Settings | mass density [kg/m3] | viscosity [mPa·s]
283.15 K | 836.6 | 22.06
288.15 K | 833.3 | 17.99
293.15 K | 829.9 | 14.39
298.15 K | 826.5 | 11.74
303.15 K | 823 | 9.561
308.15 K | 819.6 | 8
313.15 K | 816.3 | 6.831

CCCCCCCCCCCO [1-undecanol]
[1]
Settings | mass density [kg/m3] | viscosity [mPa·s]
293.15 K | 832.2 | 17.28
298.15 K | 828.8 | 13.72
303.15 K | 825.4 | 11.52
308.15 K | 821.7 | 9.35
313.15 K | 818.6 | 7.841

CCCCCCCCO [octan-1-ol] + CCCCCCCCCO
[2], x1 = 1
Settings | mass density [kg/m3] | viscosity [mPa·s]
283.15 K | 832.1 | 13.49
288.15 K | 828.6 | 10.87
293.15 K | 825.2 | 8.944
298.15 K | 821.9 | 7.498
303.15 K | 818.4 | 6.273
308.15 K | 815 | 5.342
313.15 K | 811.4 | 4.54
